Assay results reported in US20120302530A1, “23-HYDROXY-BETULINIC ACID DERIVATIVES, PREPARATION METHODS AND USES THEREOF” (priority 2009, published 2012).
pEC50: −log10 of the molar value.

Columns and labels:
[1] = test system: human colon cancer cell HCT-116; test: Human tumor xenograft model in nude mice; format: in vivo, nude mice (nu/nu); conditions: HCT-116 xenograft, 30 mg/kg oral, 5 times a week for 3 weeks, end point 4 weeks; low = active
Text: (§1) (7) Drug administration of human tumor xenograft model and nude mice tumor transplantation model: (see Harrison S D Jr; Growth of human tumor cells in athymic mice; J Natl Cancer Inst. 1991 Oct. 16; 83 (20): 1509).
(§2) T cell deficiency nude mice (nu/nu) (male, 6-week old) are bought from Charles River Lab, and are raised in pathogen-free environment according to guidelines of animal raising and using committee of university. The number of […] LNCaP, NCI-H23, HCT-116, G-361 and U-251 cells are suspended in 0.2 ml HBSS or matrigel (50: 50, v/v), and are subcutaneously vaccinated to the side abdomen region of the mice. When the average diameters of the tumors are 7˜8 mm, the mice having tumor size of 100˜200 mm3 are chosen, and are given with treatment group of compound zhangnan-5 prepared with corn oil and are only given with control group of empty carrier (corn oil), respectively.
(§3) In the oral feeding test, the compound zhangnan-5 (30 mg/kg) is dissolved in corn oil. Each day the mice are tube fed with 200 μl drug liquid in single dose (prepared with corn oil, containing 0.75 mg compound zhangnan-5) for 5 times a week and for 3 weeks. The control group is given placebo (corn oil) according to same method. The mice are raised separately, and are allowed to self-help feeding.
(§4) The tumor is measured in two vertical directions every 3˜4 days.

[2] = test system: human lung cancer cell NCI-H23; test: Human tumor xenograft model in nude mice; format: in vivo, nude mice (nu/nu); conditions: 30 mg/kg oral, 5 times a week for 3 weeks, end point 4 weeks, low = active
Text: as §1, §2, §3, §4

[3] = test system: human melanoma cell G-361; test: Human tumor xenograft model in nude mice; format: in vivo, nude mice (nu/nu); conditions: G-361 xenograft, 30 mg/kg oral, 5 times a week for 3 weeks, end point 4 weeks; low = active
Text: as §1, §2, §3, §4

[4] = test system: human prostate cancer cell LnCAP; test: Human tumor xenograft model in nude mice; format: in vivo, nude mice (nu/nu); conditions: 30 mg/kg oral, 5 times a week for 3 weeks, end point 4 weeks, low = active
Text: as §1, §2, §3, §4

[5] = test system: human malignant glioma cell U-251; test: Human tumor xenograft model in nude mice; format: in vivo, nude mice (nu/nu); conditions: U-251 xenograft, 30 mg/kg oral, 5 times a week for 3 weeks, end point 4 weeks; low = active
Text: as §1, §2, §3, §4

[6] = Side effects in the xenograft studies; conditions: tumor-bearing nude mice, 30 mg/kg oral
Text: as §1, §2, §3

human tumor cell strains = test: MTT cytotoxicity, human tumor cell strains (summary statement); format: cell-based; conditions: some (unnamed) human tumor cell strains, 72 hours, read-out: EC50 of some tumor cells
Text: We use human tumor cell lines to conduct cytotoxicity analysis. Thirty-one (31) kinds of human tumor cell strains are cultivated in the normal culture medium containing various compounds of zhangnan-5, zhangnan-7 and zhangnan-8. The human tumor lines are bought from ATCC and NCI, and is cultivated with DMEM culture solution containing 10% FBS in 370C couveuse containing 5% CO2. The merged cells are digested by trypsinase, and are counted after washed by the culture solution. 3000˜6000 cells are added into each hole of the 96-hole culture plate, and are hatched for 16 hours or 24 hours. Then, compounds zhangnan-5, zhangnan-7 and zhangnan-8 with different concentrations are added into the holes. Upon further cultivated for another 72 hours, MTT tests are conducted to cells in group treated with drugs and the control group cells, to determine the survival condition of the cells.

## C=C(C)C1CCC2(C(=O)O)CCC3(C)C(CCC4C5(C)CCC(=O)C(C)(CO)C5CCC43C)C12 (stereo not shown) [zhangnan-5]
[1]
  TGI (T/C×100 of relative tumor volume): 6.9%
[2]
  TGI (T/C×100 of relative tumor volume): 0%
[3]
  TGI (T/C×100 of relative tumor volume): 10.8%
[4]
  T/C of relative tumor volume (%): 5%
[5]
  T/C of relative tumor volume (treated/control × 100): 12.5%
[6]
  side effects, including changes in weight: no obvious side effects have been found
Human tumor cell strains
  pEC50: > 7.00
